# Patent publication US10689622B2, “Culture medium for proliferating stem cell, which contains sulfated compound” (AJINOMOTO CO., INC., priority 2012, dated 2020)
# Tests used:
# [1] = Measurement of content level of sulfur in test compound (ICP); type: physicochemical; conditions: ICPS-8100, evaluation samples containing 0.01 wt % test compound
# In short: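 Sulfur content was measured by ICP emission spectrometry on samples containing 0.01 wt % test compound. Values came from a calibration curve of sulfur standards at 0, 1, 10, 30 and 50 ppm.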
# bFGF [2] = molecular target: T1, bFGF (Homo sapiens, UniProt P09038); assay: Evaluation of bFGF stabilization in Essential 8 medium (ELISA); type: biochemical; conditions: 37° C. for 7 days
# T1 construct: purchased Lonza (via TAKARA BIO INC.) Ser. No. 00/190,632
# T1 sequence (P09038 143-288): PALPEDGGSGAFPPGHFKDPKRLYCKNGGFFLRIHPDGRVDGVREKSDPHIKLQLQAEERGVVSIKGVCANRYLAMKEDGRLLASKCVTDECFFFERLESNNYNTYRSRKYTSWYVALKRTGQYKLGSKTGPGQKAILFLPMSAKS
# In short: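 Test compound in PBS diluted 10-fold into serum-free medium (Essential 8 or ReproFF2), held sealed at 37° C for 7 days; remaining bFGF quantified by ELISA against a standard curve. Controls: PBS without compound diluted into each medium, held 7 days at 37° C or 4° C.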
# bFGF [3] = molecular target: T1, bFGF; assay: Evaluation of bFGF stabilization in Lonza serum-free medium (ELISA); type: biochemical; conditions: for effectiveness ELISA: effectiveness in ELISA evaluation of mesenchymal stem cells (medium), 4° C. control ratio
# In short: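 Compound in PBS diluted 10-fold into serum-free medium and held sealed at 37 °C for 7 days (some sets 3 days). Remaining bFGF quantified by human bFGF sandwich ELISA against a standard curve. Controls were compound-free PBS-medium kept at 37 °C or 4 °C for the same period.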
# iPS cell 201B7 strain = assay: iPS cell proliferation system (cell number); type: cell-based, human; conditions: matrigel, Essential-8 medium
# Experimental: The cell proliferation effect of various test compounds was evaluated using artificial pluripotent stem cell (iPS cell). 201B7 strain purchased from iPS Academia Japan, Inc. was grown in a culture container coated with a basal lamina matrix (matrigel manufactured by Nippon Becton Dickinson Company, Ltd., or a fragment containing an active domain of laminin 511 purchased from OSAKA UNIVERSITY) (Becton, Dickinson and Company, Falcon culture petri dish or Falcon culture plate), contained in a feeder-free medium for human ES/iPS cell (ReproCELL Inc, ReproFF2).
# In this medium were suspended iPS cells in colony state, and a 2.5- to 3.5-fold diluted amount of the original culture was plated on a 6-well culture plate coated with a basal lamina matrix (Nippon Becton Dickinson Company, Ltd., Falcon culture plate). […] After culturing for 6 to 12 days, the medium was removed, the cells were detached from the culture plate by a trypsin-EDTA (Sigma-Aldrich Ltd.) or TrypLE Select (Invitrogen) treatment and the cell number was measured. The cell number was measured by the method described in “Kaitei Saibou baiyou Nyuumon Note, page 77-83, 2010, YODOSHA CO., LTD.” which is incorporated herein by reference in its entirety.
# When the cells were seeded in a dissociation state of the cells (single cell state), a test compound solution after filter sterilization was added to a medium containing Y-27632 (Nacalai Tesque) to a given concentration, and dispensed to a 6 well culture plate. Thereto were plated iPS cells suspended in a medium containing Y-27632 at 100,000 cells/well, and cultured for 6 to 8 days. On the next day of seeding, the medium was exchanged to a medium (without Y-27632) added with the test compound alone. When medium exchange was necessary, the medium was exchanged every 2 or 3 days. […] After culturing for 6 to 8 days, the cell number was measured by a method similar to that mentioned above.
# When the evaluation was performed in Essential 8 medium (Invitrogen), which is a different feeder-free medium for iPS cell, iPS cells cultured in a medium obtained by adding human serum albumin (Sigma-Aldrich Co. LLC) to Essential 8 medium were used.
# [4] = system: Human bone marrow-derived mesenchymal stem cells; assay: Mesenchymal stem cell proliferation system (cell number by DNA quantification); conditions: for effectiveness cells: growth of mesenchymal stem cell, control ratio
# [5] = Lonza serum-free medium, 37° C. for 7 days, test compound 25 ng/ml
# [6] = Lonza serum-free medium, 37° C. for 7 days, test compound 250 ng/ml
# [7] = Lonza serum-free medium, 37° C. for 7 days, test compound 25 μg/ml
# [8] = Lonza serum-free medium, 37° C. for 7 days, test compound 250 μg/ml
Substance,sulfur content Found (inorganic analysis) [1],concentration showing a suppressive effect on a decrease in the bFGF concentration of the medium (bFGF [2]),bFGF concentration relative to that of 4° C. control (ELISA) (bFGF [2]; test compound 250 pg/ml),bFGF concentration relative to that of 4° C. control (ELISA) (bFGF [2]; test compound 25 ng/ml),bFGF concentration relative to that of 4° C. control (ELISA) (bFGF [2]; test compound 250 ng/ml),bFGF concentration relative to that of 4° C. control (ELISA) (bFGF [2]; test compound 25 μg/ml),bFGF concentration relative to that of 4° C. control (ELISA) (bFGF [2]; test compound 250 μg/ml),bFGF concentration relative to that of 4° C. control (ELISA) (bFGF [3]; [5]),bFGF concentration relative to that of 4° C. control (ELISA) (bFGF [3]; [6]),bFGF concentration relative to that of 4° C. control (ELISA) (bFGF [3]; [7]),bFGF concentration relative to that of 4° C. control (ELISA) (bFGF [3]; [8]),effectiveness ELISA (bFGF [3]),number of cells relative to control (iPS cell 201B7 strain; test compound 25 ng/ml),number of cells relative to control (iPS cell 201B7 strain; test compound 250 ng/ml),effectiveness cells [4],further results
maltoheptaose SO3Na,16 wt %,not less than 250 ng/ml,x (bFGF concentration was less than 10% relative to that of 4 °C control),x (bFGF concentration was less than 10% relative to that of 4 °C control),+ (bFGF concentration was not less than 30% and less than 50% relative to that of 4 °C control),+++ (bFGF concentration was not less than 70% relative to that of 4 °C control),+++ (bFGF concentration was not less than 70% relative to that of 4 °C control),+ (bFGF concentration was not less than 30% and less than 50% relative to that of 4 °C control),x (bFGF concentration was less than 10% relative to that of 4 °C control),+++ (bFGF concentration was not less than 70% relative to that of 4 °C control),++ (bFGF concentration was not less than 50% and less than 70% relative to that of 4 °C control),+++ (+++ 70%<),⊚ (not less than 120%: ⊚),— (100%-50%: —),⊚ (⊚ not less than 120%),"concentration showing a suppressive effect on a decrease in the bFGF concentration in the medium (bFGF [3]; Lonza serum-free medium, 37° C. for 3 days): not less than 25 ng/ml; bFGF concentration relative to that of 4° C. control (ELISA) (bFGF [3]; Lonza serum-free medium, 37° C. for 3 days, test compound 25 ng/ml): − (bFGF concentration was not less than 10% and less than 30% relative to that of 4 °C control); bFGF concentration relative to that of 4° C. control (ELISA) (bFGF [3]; Lonza serum-free medium, 37° C. for 3 days, test compound 250 ng/ml): ++ (bFGF concentration was not less than 50% and less than 70% relative to that of 4 °C control); bFGF concentration relative to that of 4° C. control (ELISA) (bFGF [3]; Lonza serum-free medium, 37° C. for 3 days, test compound 25 μg/ml): ++ (bFGF concentration was not less than 50% and less than 70% relative to that of 4 °C control); bFGF concentration relative to that of 4° C. control (ELISA) (bFGF [3]; Lonza serum-free medium, 37° C. for 3 days, test compound 250 μg/ml): ++ (bFGF concentration was not less than 50% and less than 70% relative to that of 4 °C control); concentration showing promoted cell proliferation as compared to the control ([4]; mesenchymal stem cells, Lonza serum-free medium): 250 ng/mL"
maltotriose SO3Na,13 wt %,not less than 250 ng/ml,x (bFGF concentration was less than 10% relative to that of 4 °C control),x (bFGF concentration was less than 10% relative to that of 4 °C control),− (bFGF concentration was not less than 10% and less than 30% relative to that of 4 °C control),+++ (bFGF concentration was not less than 70% relative to that of 4 °C control),+++ (bFGF concentration was not less than 70% relative to that of 4 °C control),x (bFGF concentration was less than 10% relative to that of 4 °C control),x (bFGF concentration was less than 10% relative to that of 4 °C control),+ (bFGF concentration was not less than 30% and less than 50% relative to that of 4 °C control),+++ (bFGF concentration was not less than 70% relative to that of 4 °C control),+++ (+++ 70%<),◯ (not less than 100%: ◯),◯ (not less than 100%: ◯),⊚ (⊚ not less than 120%),–
